# Test results reported in patent EP3076175A1, “DETECTION AND QUANTIFICATION OF O-ACETYL-ADP-RIBOSE AS A READOUT SYSTEM FOR MEASURING THE ACTIVITY OF E.G. SIRTUINS” (Boehringer Ingelheim International GmbH, priority 2015, dated 2016).
# Like-named read-outs stand apart in the source and are kept apart here.
# Columns and labels:
# [1] = biological target: T1, GST-tagged macro-domain protein (Archaeoglobus fulgidus, UniProt O28751); experiment: Titration curve: competition with biotinylated ADP-ribose for binding to the macro-domain protein (luminescence signal); conditions: rising concentration of competitor against biotinylated ADP-ribose
# T1 construct: For the N-terminal GST fusion of AF1521 the gene for residues 1-192 was synthesized; made in house; host or cells: E. coli BL21 Star (DE3) / BL21 Tuner (DE3)
# T1 sequence (O28751 1-192): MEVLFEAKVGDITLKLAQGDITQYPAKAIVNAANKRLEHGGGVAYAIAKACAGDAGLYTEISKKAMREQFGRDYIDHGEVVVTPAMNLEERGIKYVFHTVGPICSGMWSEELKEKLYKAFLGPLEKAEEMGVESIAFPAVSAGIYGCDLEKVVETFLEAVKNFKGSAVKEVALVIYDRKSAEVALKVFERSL
# Protocol: (§1) After that 2 µl of an acetylated peptide (final concentration of 10 µM) mixed with NAD^+ (final concentration of 500 µM, dissolved in assay buffer 1) and 2 µl of SIRT enzyme (final concentration of 20 nM for 1x SIRT (100% CTL) and 200 nM for 10x SIRT (1000% CTL), dissolved in assay buffer 1) are added by a Multidrop combi. After an incubation time of 20 min at room temperature 4 µl biotinylated ADP-ribose (final concentration 50 nM, dissolved in assay buffer 2) and 4 µl GST tagged macro-domain protein (final concentration 50 nM, dissolved in assay buffer 2) are added by a Multidrop combi. After another incubation time of 60 min at room temperature 4 µl of acceptor beads and 4 µl of donor beads (final concentration of each bead-type 20 µg/ml, both dissolved in assay buffer 2) are added by a Multidrop combi. The plates are then sealed and incubated in the dark at room temperature for at least 30 min. After the incubation period, the plates are measured using the Envision reader from Perkin Elmer.
# Assay was performed as described in example 4 (general SOP) besides the fact that instead of ADP-ribose 2'/3'-O-acetyl-ADP-ribose was used for the titration curve.
# Assay was performed as described in example 4 (general SOP) employing non-biotinylated ADP-ribose for the titration curve.
# SIRT1 = biological target: T2, SIRT1 (Homo sapiens, UniProt Q96EB6); experiment: Macro-domain protein assay for SIRT modulators (detection of generated 2'/3'-O-acetyl-ADP-ribose, donor/acceptor beads); assay type: biochemical; conditions: 10x SIRT (200 nM), 10 µM compound
# T2 construct: made in house; host or cells: E. coli BL21 Star (DE3)
# T2 sequence (Q96EB6 183-664): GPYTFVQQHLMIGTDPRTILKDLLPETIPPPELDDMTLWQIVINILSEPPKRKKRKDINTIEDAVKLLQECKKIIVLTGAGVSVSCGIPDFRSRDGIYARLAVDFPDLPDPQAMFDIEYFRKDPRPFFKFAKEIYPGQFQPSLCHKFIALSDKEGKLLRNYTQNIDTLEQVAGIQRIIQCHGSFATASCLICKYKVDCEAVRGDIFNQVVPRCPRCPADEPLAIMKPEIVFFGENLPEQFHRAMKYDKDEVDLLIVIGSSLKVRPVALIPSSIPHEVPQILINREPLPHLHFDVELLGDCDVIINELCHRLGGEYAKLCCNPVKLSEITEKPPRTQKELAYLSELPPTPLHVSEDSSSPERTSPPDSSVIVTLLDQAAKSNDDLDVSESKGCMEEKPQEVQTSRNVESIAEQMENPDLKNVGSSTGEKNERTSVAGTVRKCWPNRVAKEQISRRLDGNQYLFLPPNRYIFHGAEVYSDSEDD
# Protocol: 200 nl of test compound in 100% DMSO (final concentration of compound 10 µM; DMSO 1%) is given in the 384-well plates by a Cybio Cybiwell capillary head pipettor.
# as §1, with “Elmer. […]” for “Elmer.”
# GST-tagged AF1521 = biological target: T3, GST-tagged AF1521 (Archaeoglobus fulgidus, UniProt O28751); experiment: Nucleotide ligand binding assay by isothermal calorimetry (ITC); conditions: for ΔG: change in Gibbs free energy of binding; for ΔS: change in entropy
# T3 construct: For the N-terminal GST fusion of AF1521 the gene for residues 1-192 was synthesized; made in house; host or cells: E. coli BL21 Star (DE3) / BL21 Tuner (DE3)
# T3 sequence (O28751 1-192): T1 sequence (O28751 1-192)
# Protocol: Nucleotide binding assays were performed using isothermal calorimetry (ITC) on a ITC200 (Microcal) at 25°C. Protein was buffer exchanged using PD10 columns (GE Healthcare) into 50 mM Tris pH 7.5; 150 mM NaCl and 1 mM TCEP. Nucleotides were resuspended in ITC buffer and their concentration were determined through absorbance at 260 nm. Macro-domain proteins were used at 50 µM concentration, whereas the nucleotides were used at 500 µM. ITC measurements were performed by 20 successive injections of 2 µl of the nucleotides into 280 µl of AF1521 with a duration of 4 seconds and 150 seconds of spacing. Data analysis was done using the software ORIGIN 7.0 (Microcal).
# [2] = ITC at 25°C, protein 50 µM, nucleotide 500 µM, read-out: KD
SMILES,luminescence signal [1],amount of generated 2'/3'-O-acetyl-ADP-ribose (SIRT1),-TΔS (GST-tagged AF1521; ITC at 25°C),Kd (GST-tagged AF1521; [2]),ΔG (GST-tagged AF1521; ITC at 25°C),"ΔH (GST-tagged AF1521; change in enthalpy, ITC at 25°C)",ΔS (GST-tagged AF1521; ITC at 25°C),"Kd (GST-tagged AF1521; ITC, read-out: KD value)"
Nc1ncnc2c1ncn2[C@@H]1O[C@H](COP(=O)(O)OP(=O)(O)OC[C@H]2OC(O)[C@H](O)[C@@H]2O)[C@@H](O)[C@H]1O (some centres unmarked) [ADP-ribose],the luminescence signal decreases,–,–,–,–,–,–,–
O=C(Nc1nccs1)c1cccc2ccc(-c3cccc(OC4CCNCC4)c3)nc12 [EX00001253],–,reduces the amount of generated 2'/3'-O-acetyl-ADP-ribose,–,–,–,–,–,–
Cc1ccc(C(=O)Nc2ccc(S(=O)(=O)O)c3cc(S(=O)(=O)O)cc(S(=O)(=O)O)c23)cc1NC(=O)c1cccc(NC(=O)Nc2cccc(C(=O)Nc3cc(C(=O)Nc4ccc(S(=O)(=O)O)c5cc(S(=O)(=O)O)cc(S(=O)(=O)O)c45)ccc3C)c2)c1 [Suramin],–,reduces the amount of generated 2'/3'-O-acetyl-ADP-ribose,–,–,–,–,–,–
"CC(=O)O[C@@H]1[C@@H](COP(=O)(O)OP(=O)(O)OC[C@H]2O[C@@H](n3cnc4c(N)ncnc43)[C@H](O)[C@@H]2O)OC(O)[C@@H]1O (some centres unmarked) [acetyl ADP-ribose, 2'/3'-O-acetyl-ADP-ribose]",the luminescence signal decreases,–,-2.271 kcal/mol,4140 nM,-7.339 kcal/mol,-5.07 kcal/mol,"7,63 cal/mol/K",–
Nc1ncnc2c1ncn2[C@@H]1O[C@H](COP(=O)(O)OP(=O)(O)OC[C@@H](O)[C@@H](O)[C@@H](O)C=NOCC(=O)NCCOCCOCCOCCOCCNC(=O)CCCC[C@@H]2SC[C@@H]3NC(=O)N[C@@H]32)[C@@H](O)[C@H]1O [biotinylated ADP-ribose],–,–,0.383 kcal/mol,2550 nM,-7.64 kcal/mol,–,"-1,3 cal/mol/K",2500 nM
